Results as given in US5635197A, “Treatment and prevention of prostatic cancer metastasis” (priority 1995, dated 1997).

Target: T1, Human Type I Steroid 5α-Reductase (Homo sapiens, UniProt P18405)
T1 construct: Preparation of Type I 5α-Reductase from Human Scalp; from tissue; host or cells: human scalp punch biopsies from hair transplant procedures; 100,000 x g pellet of skin homogenate
T1 sequence (P18405 1-259): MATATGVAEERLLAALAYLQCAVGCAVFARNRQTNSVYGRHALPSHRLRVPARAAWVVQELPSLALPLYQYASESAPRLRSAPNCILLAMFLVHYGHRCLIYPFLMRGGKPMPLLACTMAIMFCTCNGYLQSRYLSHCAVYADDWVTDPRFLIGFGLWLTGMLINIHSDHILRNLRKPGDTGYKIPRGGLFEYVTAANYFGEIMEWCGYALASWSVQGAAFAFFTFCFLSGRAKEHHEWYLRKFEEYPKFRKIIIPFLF
Assay: Human Type I steroid 5α-reductase homogenate assay (conversion of [3H]-testosterone to [3H]-5α-dihydrotestosterone)
Type: biochemical
Conditions: 0.3 μM concentration; compared to control reaction mixtures; enzyme from human scalp, pH 7.5, 25°, 180 min
Description: Methodology of Human Type I Steroid 5α-Reductase Assays
Approximately 60-75 punches from one surgical procedure were used to generate an enzyme preparation. The subcutaneous tissue was cut away and discarded. The skin was frozen with liquid nitrogen and pulverized to powder. […] The homogenization procedure consisted of four 15 second pulses. Connective tissue was cleared from the probe with forceps between pulses. […] The pellet was resuspended by homogenization with a Dounce homogenizer using the same buffer solution. […] Aliquots of the enzyme preparation were stored at -80° until use.
The reaction was initiated by the addition of 0.5 mg of Type I 5α-reductase. The reaction mixture was incubated at 25° for 180 min, and terminated by the addition of 1 mL ice-cold stopping solution. […] The samples were prepared for high performance liquid chromatography by solid phase extraction. […] The reaction mixtures were then applied to the columns. The columns were subsequently washed with 5 mL of acetone:water (1:4), followed by 0.3 mL of methanol. The samples were then eluted with 3 mL of methanol and collected in 20 mL scintillation vials. Three mL of water was then added to each scintillation vial. […] The column temperature was maintained at 35° and the flow rate was 1.5 mL/min.

In the case of “(+)-(4aR)-(10bR)-4-methyl-8-(3-t-butylcarboxamidophenyl)-10b-methyl-1,2,3,4,4a,5,6,10b-octahydrobenzo[f]quinolin-3-one [Example 34]”, the “percent inhibition of Type I 5AR” value is reported as 13%.
“(+)-(4aR)-(10bR)-4-methyl-8-(3-[1-benzyl-4-piperidinylcarboxamido]phenyl)-10b-methyl-1,2,3,4,4a,5,6,10b-octahydrobenzo[f]quinolin-3-one [Example 209]” was tested, and the “percent inhibition of Type I 5AR” value was 24%.
“(+)-(4aR)-(10bR)-4-methyl-8-benzyloxycarbonyl-10b-methyl-1,2,3,4,4a,5,6,10b-octahydrobenzo[f]quinolin-3-one [Example 144]” was tested, and the “percent inhibition of Type I 5AR” value was 90%.
For `CN1C(=O)CC[C@]2(C)c3ccc(-c4ccc(-c5ccc(NC(=O)C(C)(C)C)s5)cc4)cc3CC[C@@H]12` [Example 222, (+)-(4aR)-(10bR)-4-methyl-8-(4-[(2-t-butylcarbonylamino]-5-thienyl]phenyl)-10b-methyl-1,2,3,4,4a,5,6,10b-octahydrobenzo[f]quinolin-3-one], the “percent inhibition of Type I 5AR” value was 86%.
